Data on nine molecules can be found in patent US20260217674A1 (priority 2023, published 2026).

The target in assay [1] is acetylcholinesterase (AChE) (Homo sapiens, UniProt P22303). Nature of the assay: biochemical. It is filed as biochemical. The following applies: for inhibition at 0.001 µM: read-out: % Inhibition (1 nM); for inhibition at 0.01 µM: read-out: % Inhibition (10 nM); for inhibition at 0.1 µM: read-out: % Inhibition (100 nM). How it is done:
A solution of each tested compound is prepared by dissolving the compound in DMSO at 1 mM stock solution and diluting with water to the following concentration 100 nM, 10 nM and 1 nM.
The procedure of MAK119 kit assay of Sigma Aldrich (colorimetric test) has been followed as described:
The Working Reagent (MAK119C) of the kit is prepared fresh and used within 30 minutes.
A solution B made with […] of water and […] of Calibrator (MAK119B of the kit) is distributed into separate wells of the 96-well plate. […] of the solution of the tested compound is added into wells and then […] of the solution A is added to all sample wells.
The plate was incubated at room temperature for 2 min and the initial absorbance at 412 nm (A412)ini was measured. After 10 min of incubation at room temperature the final measurement (A412)final.
The following calculation is then achieved: […] Inhibition was calculated by comparing the absorbance of the samples containing the tested compounds at 412 nm (A412) and of the absorbance of the negative and positive controls after 12 min of incubation.

Another assay relates to VGLUT3^T8I/T8I mice. Nature of the assay: Activity-based anorexia (ABA) model in hypocholinergic VGLUT3^T8I/T8I mice. It counts as in vivo. The following applies: for percentage of mice weighing at least 75% of their baseline body weight: after 8 days. The text has this: Self-starvation behaviors are modeled in the activity-based anorexia (ABA) test (Klenotich, S. J., Dulawa, 2012 Methods Mol Biol 829, 377-93). In this test, animals are housed in the presence of a running wheel. Access to food is progressively restricted over a period of 8 days. For these animal experiments, an hypocholinergic mouse model was used. The type 3 atypical vesicular transporter (VGLUT3) is expressed by all cholinergic striatal interneurons (El Mestikawy et al. 2011, Nat Rev Neurosci 12(4), 204-16).
In 2015, the El Mestikawy team discovered a p.T8I variant of VGLUT3 expressed in patients suffering from substance use disorder and from eating disorders (Sakae et al. Mol Psychiatry, 2015, 20(11), 1448-59). Mice expressing this variant (VGLUT3^T8I/T8I mice) have a reduced cholinergic tone in the striatum and are more vulnerable to self-starvation in the ABA model. In other terms, VGLUT3^T8I/T8I mice present the same main symptomology than anorexic patients and are considered to be a model of choice for anorexia.
The ABA model was performed as described by Klenotich and Dulawa (Klenotich, S. J., Dulawa, 2012 Methods Mol Biol 829, 377-93) and as previously reported (Favier, M., et al., J Clin Invest 130, 6616-6630 (2020)). For habituation, all mice were individually housed in cages with running wheels for 7 days with unrestricted access to food, water and running wheel. After the adaptation period, all mice were maintained in the same running wheel cages for 8 additional days. Access to food was progressively restricted, from 8 h (day 1) to 2 h (day 8) per day. Body weight and food intake were measured daily before and after food access, respectively. […]. Mice were treated daily 30 min before the start of food access, during both baseline and food restriction phases.

Setting [2] is: compound 1 nM, absorbance 412 nm, 12 min incubation.
Where [3] appears, read: compound 10 nM, absorbance 412 nm, 12 min incubation.
Where [4] appears, read: compound 100 nM, absorbance 412 nm, 12 min incubation.

The structures appear in SMILES notation. Where two headings read alike, the source gives them in different places.

Sequence of acetylcholinesterase (AChE) (P22303 32-614): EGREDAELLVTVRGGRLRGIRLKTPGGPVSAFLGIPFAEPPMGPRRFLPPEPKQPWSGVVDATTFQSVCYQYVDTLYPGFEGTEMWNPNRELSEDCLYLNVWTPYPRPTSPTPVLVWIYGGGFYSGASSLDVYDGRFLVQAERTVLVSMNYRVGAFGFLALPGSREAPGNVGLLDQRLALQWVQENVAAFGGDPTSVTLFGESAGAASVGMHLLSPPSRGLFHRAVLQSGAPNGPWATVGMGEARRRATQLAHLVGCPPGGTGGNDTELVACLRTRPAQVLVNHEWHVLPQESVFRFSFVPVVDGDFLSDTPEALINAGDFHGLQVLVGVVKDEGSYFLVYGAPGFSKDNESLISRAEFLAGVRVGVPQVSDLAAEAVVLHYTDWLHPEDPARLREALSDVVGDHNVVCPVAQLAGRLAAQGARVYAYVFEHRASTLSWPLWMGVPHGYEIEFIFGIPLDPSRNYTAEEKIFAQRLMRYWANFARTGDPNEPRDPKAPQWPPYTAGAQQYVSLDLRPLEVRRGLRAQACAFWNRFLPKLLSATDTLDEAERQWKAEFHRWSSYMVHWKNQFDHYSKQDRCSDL

With `COc1ccc2c(c1)C=C/C(=C/Oc1cc3c(cc1OC)C(=O)C(CC1CCN(Cc4ccccc4)CC1)C3)N2C(C)C` (centres unmarked) [Compound 56], the inhibition at 0.001 µM in assay [1] (setting [2]) is 50%. In addition, the inhibition at 0.01 µM in assay [1] (setting [3]) turned out to be 75%. In addition, the inhibition at 0.1 µM in assay [1] (setting [4]) was determined as 100%. Also, the “percentage of mice weighing at least 75% of their baseline body weight” value is listed as “about 90%” in the assay on VGLUT3^T8I/T8I mice (0.01 mg/kg daily i.p.) and 60% with VGLUT3^T8I/T8I mice (0.03 mg/kg daily i.p., FIG. 1(B)). For the same molecule, the “efficiency in reducing the food restriction (food intake)” value in the assay with VGLUT3^T8I/T8I mice (donquine 0.01 mg/kg versus donepezil 0.03 mg/kg daily i.p., FIG. 1(C)) is listed as “more efficient than donepezil at 0.03 mg/kg”.
As for `COc1cc2c(cc1OC[n+]1cccc3ccc(O)cc31)CC(CC1CCN(Cc3ccccc3)CC1)C2=O` (centres unmarked) [Compound 57], in assay [1], the inhibition at 0.01 µM is 100% and the inhibition at 0.1 µM is 100%.
In the case of `COc1cc2c(cc1OC[n+]1cccc3cccc(N)c31)CC(CC1CCN(Cc3ccccc3)CC1)C2=O` (centres unmarked) [Compound 59], the inhibition at 0.01 µM in assay [1] (setting [3]) was found to be 100%. In assay [1] (setting [4]), the inhibition at 0.1 µM is 100%.
With `COc1cc2c(cc1OCc1ccc3cccc(N)c3[n+]1C)CC(CC1CCN(Cc3ccccc3)CC1)C2=O` (centres unmarked) [Compound 62], the inhibition at 0.01 µM in assay [1] (setting [3]) was found to be 100%. For the same molecule, the inhibition at 0.1 µM in assay [1] (setting [4]) worked out at 100%.
In the case of `COc1cc2c(cc1OCc1ccc3c(Cl)cc[n+](C)c3c1)CC(CC1CCN(Cc3ccccc3)CC1)C2=O` (centres unmarked) [Compound 63], in assay [1], the inhibition at 0.001 µM was found to be 75%, the inhibition at 0.01 µM was found to be 75% and the inhibition at 0.1 µM turned out to be 75%.
For `COc1cc2c(cc1OCc1ccc3ccc[n+](C)c3c1)CC(CC1CCN(Cc3ccccc3)CC1)C2=O` (centres unmarked) [Compound 64], the inhibition at 0.001 µM in assay [1] (setting [2]) was determined as 25%. In addition, the inhibition at 0.01 µM in assay [1] (setting [3]) amounted to 100%. In assay [1] (setting [4]), the inhibition at 0.1 µM amounted to 100%.
In the case of `COc1cc2c(cc1OCc1cc[n+](C(C)C)c3ccccc13)CC(CC1CCN(Cc3ccccc3)CC1)C2=O` (centres unmarked) [Compound 75], in assay [1] (setting [3]), the “% Inhibition (10 nM)” value is 100%. The “% Inhibition (100 nM)” value in assay [1] (setting [4]) is reported as 100%.
On to `COc1cc2c(cc1OCc1ccc3ccccc3[n+]1C(C)C)CC(CC1CCN(Cc3ccccc3)CC1)C2=O` (centres unmarked) [Compound 76], for which, in assay [1] (setting [3]), the inhibition at 0.01 µM is 100%. Further, the inhibition at 0.1 µM in assay [1] (setting [4]) amounted to 100%.
With `COc1cc2c(cc1OC)C(=O)C(CC1CCN(Cc3ccccc3)CC1)C2` (centres unmarked) [Donepezil, donepezil, reference compound], the “efficiency in reducing the number of mice losing weight until 75% of baseline bodyweight or less” value in the assay on VGLUT3^T8I/T8I mice (donepezil 0.03 mg/kg versus donquine 0.01 mg/kg daily i.p., FIG. 1(D)) was “less efficient”.

Usually inhibition stands for the share of the control response that was lost under treatment.
